In publication PMC10739574 (Bioconjugate Chemistry, 2023):

Molecular target: Recombinant FKBP12 (Homo sapiens, UniProt P62942)
Test: Pure protein target engagement assay
Type: binding

Chain of Recombinant FKBP12 (P62942 whole entry): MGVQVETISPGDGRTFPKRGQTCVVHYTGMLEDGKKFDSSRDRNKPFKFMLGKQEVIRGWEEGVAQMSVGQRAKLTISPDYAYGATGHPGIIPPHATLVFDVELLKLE

**Q.** With `C#CCCC1(CC[C@H](NC(=O)NCCCCCCNC(=O)NCCNC(=O)COc2cccc([C@@H](CCc3ccc(OC)c(OC)c3)OC(=O)[C@@H]3CCCCN3C(=O)C(=O)C(C)(C)CC)c2)C(N)=O)N=N1.O=C(O)C(F)(F)F` [Compound 3] as the compound, how does the “Labeling of FKBP12 in dilution series” value (8-point, 5-fold dilution series, UV irradiated) read?
**A.** The value was “Dose-dependent labeling”.

**Q.** `C#CCCC1(CC[C@H](NC(=O)NCCCCCCNC(=O)NCCNC(=O)COc2cccc([C@@H](CCc3ccc(OC)c(OC)c3)OC(=O)[C@H]3CCCN3C(=O)C(=O)C(C)(C)CC)c2)C(N)=O)N=N1.O=C(O)C(F)(F)F` [Compound 6] was tested. Which “Fluorescent intensity of the bands” value (crude probes 10 µM, comparison) did it give?
**A.** The value was “brighter than crude 3”.

**Q.** How did the “Nonspecific labeling of FKBP12” value (crude linker, 10 and 40 µM, negative control) turn out when `C#CCCC1(CC[C@H](NC(=O)NCCCCCCNC(=O)NCCN)C(N)=O)N=N1` [Compound 7, (S)-16-amino-2-(2-(3-(but-3-yn-1-yl)-3H-diazirin-3-yl)ethyl)-4,13-dioxo-3,5,12,14-tetraazahexadecanamide] was run?
**A.** Its value is “not seen”.

**Q.** For `CO[C@H]1C[C@@H]2CC[C@@H](C)[C@@](O)(O2)C(=O)C(=O)N2CCCC[C@H]2C(=O)O[C@H]([C@H](C)C[C@@H]2CC[C@@H](O)[C@H](OC)C2)CC(=O)[C@H](C)/C=C(\C)[C@@H](O)[C@@H](OC)C(=O)[C@H](C)C[C@H](C)/C=C/C=C/C=C/1C` [rapamycin, reference compound], which “Competition of PAL probe interaction with FKBP12” value (rapamycin 10 µM pretreatment, purified and crude probes 10 µM) is on record?
**A.** Its value is “prevented interaction with the PAL probes”.
